The values below are quoted from earlier work in US11524044B2, “Strengthening and tumor eliminating traditional Chinese medicine composition, its preparation method and application” (The First Afiliated Hospital Of Guangzhou University Of …, priority 2020, dated 2022).

The subject of series [1] is ADP induced platelet aggregation.
In series [2] the test system is human colon cancer, liver cancer, gastric cancer, lung cancer and breast cancer related cells.

Regarding `N#C[C@H](O[C@@H]1O[C@H](CO[C@@H]2O[C@H](CO)[C@@H](O)[C@H](O)[C@H]2O)[C@@H](O)[C@H](O)[C@H]1O)c1ccccc1` [amygdalin], the “inhibition of ADP induced platelet aggregation” value in series [1] was “inhibit ADP induced platelet aggregation in varying degrees”.

Turning to `COc1cc(O)c(-c2c(O)cc(OC)c3c2ccc2cc(O)ccc23)c2c1-c1ccc(O)cc1CC2` [Cirrhopetalanthrin], in series [2], the cytotoxicity entry is “moderate cytotoxicity”.
